Experimental data from ChEMBL document CHEMBL3272349, “Quantitative structure-activity relationships of antimalarial and dihydrofolate reductase inhibition by quinazolines and 5-substituted benzyl-2,4-diaminopyrimidines” (J Med Chem, 1977).

Tested on: Plasmodium berghei
Experiment: Antimalarial activity against Plasmodium berghei infected in po dosed mouse assessed as suppression of parasitemia administered for 6 days
Assay type: functional

`Nc1nc(N)c2cc(Oc3ccc4cc(Br)ccc4c3Br)ccc2n1` and `Nc1nc(N)c2cc(Oc3ccc4cc(Br)ccc4c3)ccc2n1` are within 0.2 log units of each other in “log(1/SD90)” value: 4.05 for the first, 4.09 for the second.

First: Nc1nc(N)c2cc(OCc3ccccc3)ccc2n1
Second: Nc1nc(N)c2cc(Oc3ccc(Cl)c(Cl)c3)ccc2n1
The “log(1/SD90)” value of the first is lower: 3.18 for the first, 4.52 for the second.

Molecular target: T1, Dihydrofolate reductase (Escherichia coli) (UniProt P0ABQ4)
T1 sequence (whole entry): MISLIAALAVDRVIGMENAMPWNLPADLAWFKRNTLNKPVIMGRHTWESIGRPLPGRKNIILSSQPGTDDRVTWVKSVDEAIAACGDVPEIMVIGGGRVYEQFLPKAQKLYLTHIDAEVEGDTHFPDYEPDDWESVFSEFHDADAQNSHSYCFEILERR
Description: Inhibition of Escherichia coli dihydrofolate reductase

Going from `COc1ccc(Cc2cnc(N)nc2N)cc1OC` to `COc1cc(Cc2cnc(N)nc2N)cc(Cl)c1OC`, the log(1/I50) rises from 7 to 7.4.

Going from `COc1ccc(Cc2cnc(N)nc2N)cc1` to `Cc1ccc(Cc2cnc(N)nc2N)cc1`, the log(1/I50) falls from 5.96 to 5.64.

Going from `COc1cccc(Cc2cnc(N)nc2N)c1` to `Nc1ncc(Cc2ccc(O)cc2)c(N)n1`, the log(1/I50) falls from 6.31 to 5.74.

With `Nc1ncc(Cc2ccc(Cl)cc2)c(N)n1` the log(1/I50) was 5.68.

Tested on: Plasmodium berghei
Experiment: Antimalarial activity against Plasmodium berghei infected in po dosed mouse assessed as suppression of parasitemia administered for 4 days
Assay type: functional

Going from `Nc1nc(N)c2cc(N3CCc4ccccc4C3)ccc2n1` to `Nc1nc(N)c2cc(N3CCCC3c3ccccc3)ccc2n1` (centres undefined), the “log(1/SD90)” value rises from 4.8 to 5.94.

First: Nc1nc(N)c2cc(N(Cc3ccc(Cl)c(Cl)c3)N=O)ccc2n1
Second: Nc1nc(N)c2cc(N3CCC(c4ccccc4)CC3)ccc2n1
The “log(1/SD90)” value of the first is higher: 6.13 for the first, 4.3 for the second.

In the case of `Cc1ccc(C)n1-c1cc(-n2c(C)ccc2C)c2nc(N)nc(N)c2c1`, the “log(1/SD90)” value was 4.34.

Tested on: Proteus vulgaris
Experiment: Inhibition of Proteus vulgaris dihydrofolate reductase

Compared with `COc1cc(Cc2cnc(N)nc2N)cc(OC)c1OC`, `CCCCc1ccc(N2C(N)=NC(N)=NC2(C)C)cc1` is higher in Activity: 0.5 ×10⁻⁸ M for the first, 10000 ×10⁻⁸ M for the second.

Molecular target: T2, Dihydrofolate reductase (Rattus norvegicus) (UniProt Q920D2)
T2 sequence (whole entry): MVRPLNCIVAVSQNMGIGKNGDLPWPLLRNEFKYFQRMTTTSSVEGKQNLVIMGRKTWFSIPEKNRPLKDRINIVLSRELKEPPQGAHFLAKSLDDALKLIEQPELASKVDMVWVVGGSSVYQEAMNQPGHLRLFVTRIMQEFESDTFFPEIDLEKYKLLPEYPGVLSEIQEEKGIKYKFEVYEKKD
Description: Inhibition of rat liver dihydrofolate reductase

In the case of `Nc1ncc(Cc2ccccc2)c(N)n1`, the log(1/I50) was 4.8.
